Patent EP2999467B1, “USE OF A COMBINATION OF TWO COMPOUNDS FOR THE TREATMENT AND/OR PREVENTION OF BONE DISORDERS” (Institut National de la Recherche Agronomique (INRA), priority 2013, dated 2014)

System: RAW264.7
Experiment: TRAP staining: RANKL-induced osteoclast differentiation, count of multinucleated TRAP+ cells
Format: cell-based
Description: Les préostéoblastes primaires ont été isolés à partir de la calotte crânienne de rats Wistar nouveaux-nés par digestion enzymatique comme précédemment décrit [Declercq, H., Van den Vreken, N., De Maeyer, E., Verbeeck, R., Schacht, E., De Ridder, L., and Cornelissen, M. (2004). Isolation, proliferation and differentiation of osteoblastic cells to study cell/biomaterial interactions: comparison of different isolation techniques and source. Biomaterials 25, 757-68.]. Les précurseurs d'ostéoclastes RAW264.7 ont été obtenus auprès de l'ATCC (Manassas, VA, USA). Les préostéoblastes et les RAW264.7 ont été cultivés dans du milieu α-MEM (Invitrogen, Carlsbad, CA, USA) supplémenté avec 10% de SVF décomplémenté et de 100 unités/ml de pénicilline-streptomycine.
Pour la coloration TRAP, 60.000 cellules RAW264.7 ont été ensemencées dans des puits de plaques 12 puits pendant 12 heures puis traitées avec du DMSO/éthanol comme témoin ou de la fisétine (5 µM dans le DMSO) ou du DHA (50µM dans l'éthanol) ou la combinaison des deux (Fisétine 5 µM et DHA 50 µM) pendant 3 heures. Les cellules ont ensuite été induites à se différencier en présence de RANKL (50 ng/ml) avec du DMSO/éthanol ou de la fisétine (5 µM) ou du DHA (50 µM) ou la combinaison des deux (Fisétine 5 µM et DHA 50 µM) durant 4 jours avec un changement de milieux après 2 jours. De la BSA délipidée et sans endotoxines a été utilisée pour solubiliser le DHA avec un rapport 1/5 (BSA/DHA).
La coloration TRAP a été réalisée en utilisant le kit « leukocyte acid phosphatase » (Sigma-Aldrich) selon les recommandations du fournisseur après fixation des cellules. Les cellules TRAP+ multinucléées ont ensuite été comptées.

For `CC/C=C\C/C=C\C/C=C\C/C=C\C/C=C\C/C=C\CCC(=O)O` [DHA, acide docosahexaénoïque], the inhibition at 50 µM (Mus musculus, RAW264.7, 96 h, DHA 50µM, RANKL 50 ng/ml, 4 days, vs RANKL condition, read-out: inhibition de l'induction par RANKL de la formation de cellules multinucléées TRAP+ (ostéoclastes)) was 23% and the “ostéoclastes/cm^2” value (condition RANKL+DHA (50µM), RANKL alone 735+/-251) was 564+/-259 ostéoclastes/cm^2.
